# In paper PMC6354011 (Scientific Reports, 2019):
# Several values for one entry are separate records, joined by “and”; a condition that tells them apart may be missing. Equal values may be shown once. Read-outs that look alike come from different tables or passages of the source.
# Assays:
# [1] = molecular target: T1, Electric eel acetylcholinesterase (AChE, EC 3.1.1.7) (Electrophorus electricus, UniProt O42275); assay: biochemical
# T1 construct: purchased Sigma-Aldrich (USA)
# Text: (§1) Ellman’s colorimetric method with minor modification was employed in the determination of AChE and BChE inhibitory activities. Electric eel acetylcholinesterase (AChE, EC 3.1.1.7), equine serum butyrylcholinesterase (BChE, EC 3.1.1.8), 5,5′-Dithiobis(2-nitrobenzoic acid) (DTNB) and sodium phosphate dibasic (Na2HPO4) were purchased from Sigma-Aldrich (USA). S-butyrylthiocholine chloride (BTCC) from Sigma-Aldrich (Switzerland), acetylthiocholine iodide (ATCI) from Sigma-Aldrich (United Kingdom) and sodium phosphate monobasic (NaH2PO4) from Sigma-Aldrich (Germany) were purchased. […] Ethanol was used to replace the sample as a control in this assay.
# [2] = molecular target: T2, equine serum butyrylcholinesterase (BChE, EC 3.1.1.8) (Equus caballus, UniProt P81908); assay: biochemical; assay type: biochemical; details: for BChE % inhibition: single read
# T2 construct: equine serum butyrylcholinesterase (BChE, EC 3.1.1.8); purchased Sigma-Aldrich (USA); host or cells: equine serum
# T2 sequence (P81908 whole entry): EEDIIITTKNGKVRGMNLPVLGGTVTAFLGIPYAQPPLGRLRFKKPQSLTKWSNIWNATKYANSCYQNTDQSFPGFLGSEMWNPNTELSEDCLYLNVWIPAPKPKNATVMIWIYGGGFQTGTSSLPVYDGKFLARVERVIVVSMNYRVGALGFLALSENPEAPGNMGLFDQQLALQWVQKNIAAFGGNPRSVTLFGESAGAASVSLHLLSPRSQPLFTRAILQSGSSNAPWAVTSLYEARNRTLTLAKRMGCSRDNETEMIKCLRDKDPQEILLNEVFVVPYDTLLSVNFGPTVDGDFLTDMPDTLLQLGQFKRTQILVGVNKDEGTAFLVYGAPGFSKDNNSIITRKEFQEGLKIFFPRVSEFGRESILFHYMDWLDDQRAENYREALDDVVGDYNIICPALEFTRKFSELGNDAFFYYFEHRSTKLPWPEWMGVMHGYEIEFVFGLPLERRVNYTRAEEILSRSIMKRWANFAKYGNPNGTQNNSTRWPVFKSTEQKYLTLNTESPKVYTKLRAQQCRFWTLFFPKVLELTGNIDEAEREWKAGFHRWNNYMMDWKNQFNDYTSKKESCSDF
# Text: as §1
# [3] = mean ± SD, n = 3, read-out: IC50 (µM) AChE
# [4] = mean ± SD, n = 3, read-out: IC50 (µM) BChE
# [5] = average of three reads, read-out: AChE IC50 (µM) Average
# [6] = average of three reads, read-out: AChE IC50 (µg/mL) Average (converted)
# [7] = first read, read-out: AChE IC50 (µM) First read
# [8] = second read, read-out: AChE IC50 (µM) Second read
# [9] = single read, unit not printed at place (µg/mL), read-out: AChE IC50 from regression on raw-data page (converted)
# [10] = third read, read-out: AChE IC50 (µM) Third read
# [11] = N = 3, unit not given (µg/mL scale), read-out: BChE IC50, Tukey HSD homogeneous subsets (group mean) (converted)
# [12] = average of three reads, read-out: BChE IC50 (µM) Average
# [13] = average of three reads, read-out: BChE IC50 (µg/mL) Average (converted)
# [14] = first read, read-out: BChE IC50 (µM) First read
# [15] = first read, read-out: BChE IC50 (µg/mL) First read (converted)
# [16] = second read, read-out: BChE IC50 (µM) Second read
# [17] = second read, read-out: BChE IC50 (µg/mL) Second read (converted)
# [18] = third read, read-out: BChE IC50 (µM) Third read
# [19] = third read, read-out: BChE IC50 (µg/mL) Third read (converted)
# [20] = second read, read-out: AChE IC50 (µg/mL) Second read (converted)
# [21] = third read, read-out: AChE IC50 (µg/mL) Third read (converted)
# [22] = first read, read-out: AChE IC50 (µg/mL) First read (converted)
# T1 sequence (O42275 24-633): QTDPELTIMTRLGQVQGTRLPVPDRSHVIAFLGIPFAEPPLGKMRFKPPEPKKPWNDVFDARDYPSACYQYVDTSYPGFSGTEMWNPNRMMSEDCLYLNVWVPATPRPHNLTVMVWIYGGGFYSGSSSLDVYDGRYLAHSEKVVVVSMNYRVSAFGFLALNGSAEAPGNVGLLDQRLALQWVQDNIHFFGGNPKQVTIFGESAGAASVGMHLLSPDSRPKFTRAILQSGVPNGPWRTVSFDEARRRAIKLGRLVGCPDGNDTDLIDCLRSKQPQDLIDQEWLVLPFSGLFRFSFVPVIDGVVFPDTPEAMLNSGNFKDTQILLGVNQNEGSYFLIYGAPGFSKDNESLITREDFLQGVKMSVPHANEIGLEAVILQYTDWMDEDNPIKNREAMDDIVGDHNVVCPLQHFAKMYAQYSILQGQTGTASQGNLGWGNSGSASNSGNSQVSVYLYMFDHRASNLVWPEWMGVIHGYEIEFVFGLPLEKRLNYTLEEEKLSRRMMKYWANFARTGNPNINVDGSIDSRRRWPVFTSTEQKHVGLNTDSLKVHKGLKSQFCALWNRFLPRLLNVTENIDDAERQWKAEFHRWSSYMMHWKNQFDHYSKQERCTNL
SMILES,"IC50 [1, 3] [µM]","IC50 [2, 4] [µM]","IC50 [1, 5] [µM]","IC50 [1, 6] [µM]","AChE % inhibition ([1]; conc 50 (µg/mL), single read)","AChE % inhibition ([1]; conc 100 (µg/mL), single read)","AChE % inhibition ([1]; conc 150 (µg/mL), single read)","AChE % inhibition ([1]; conc 200 (µg/mL), single read)","IC50 [1, 7] [µM]","IC50 [1, 8] [µM]","IC50 [1, 10] [µM]","IC50 [2, 11] [µM]","IC50 [2, 12] [µM]","IC50 [2, 13] [µM]",BChE % inhibition ([2]; conc 50 (µg/mL)),BChE % inhibition ([2]; conc 100 (µg/mL)),"IC50 [2, 14] [µM]","IC50 [2, 15] [µM]","IC50 [1, 20] [µM]","IC50 [1, 21] [µM]",other results
"c1ccn2cc(C34CC5CC(CC(C5)C3)C4)nc2c1 [Compound 2a, 2-(adamantan-1-yl)imidazo[1,2-a]pyridine]",> 2000,> 2000,–,–,–,–,–,–,–,–,–,–,–,–,–,–,–,–,–,–,–
"Cc1cccn2cc(C34CC5CC(CC(C5)C3)C4)nc12.O [Compound 2b, 2-(adamantan-1-yl)-8-methylimidazo[1,2-a]pyridine hydrate]",657 ± 60,706 ± 37,657,614,23.63% and 19.6906% and 32.91%,27.71% and 37.97% and 34.60%,38.54% and 49.65% and 47.82%,52.60% and 54.71% and 61.74%,721,646,603,663,706,660,21.17% and 17.3469% and 18.49%,28.06% and 27.68% and 30.36%,681,637,–,–,"IC50 ([1]; N = 3, unit not printed (µg/mL scale), read-out: AChE IC50, Tukey HSD homogeneous subsets (group mean) (converted)): 614 µM; AChE % inhibition ([1]; conc 250 (µg/mL), single read): 60.34% and 65.68% and 64.70%; AChE % inhibition ([1]; conc 300 (µg/mL), single read): 75.67% and 76.23% and 73.56%; IC50 [1, 9]: 674 µM and 605 µM and 564 µM; BChE % inhibition ([2]; conc 200 (µg/mL)): 49.87% and 45.66% and 43.75%; BChE % inhibition ([2]; conc 300 (µg/mL)): 64.41% and 61.35% and 67.86%; BChE % inhibition ([2]; conc 400 (µg/mL)): 72.45% and 75.51%; BChE % inhibition ([2]; conc 500 (µg/mL)): 80.48% and 74.74% and 73.60%; BChE % inhibition ([2]; conc 600 (µg/mL)): 81.63% and 77.81%; BChE % inhibition ([2]; conc 700 (µg/mL)): 82.40% and 85.08% and 88.14%; IC50 [2, 16]: 748 µM; IC50 [2, 17]: 700 µM; IC50 [2, 18]: 689 µM; IC50 [2, 19]: 644 µM"
"Cc1ccn2cc(C34CC5CC(CC(C5)C3)C4)nc2c1.O [Compound 2c, 2-(adamantan-1-yl)-7-methylimidazo[1,2-a]pyridine hydrate]",270 ± 21,> 2000,270,252,41.33% and 47.36% and 42.61%,56.96% and 48.25% and 49.14%,68.34% and 71.41% and 72.20%,71.21% and 69.72% and 76.25%,293,267,250,–,–,–,–,–,–,–,249,234,"AChE % inhibition ([1]; conc 25 (µg/mL), single read): 20.55% and 27.0778% and 32.32%; AChE % inhibition ([1]; conc 250 (µg/mL), single read): 76.15% and 78.73% and 78.33%; IC50 [1, 9]: 274 µM"
"Cc1ccc2nc(C34CC5CC(CC(C5)C3)C4)cn2c1 [Compound 2d, 2-(adamantan-1-yl)-6-methylimidazo[1,2-a]pyridine]",> 2000,> 2000,–,–,–,–,–,–,–,–,–,–,–,–,–,–,–,–,–,–,–
"Clc1ccn2cc(C34CC5CC(CC(C5)C3)C4)nc2c1 [Compound 2e, 2-(adamantan-1-yl)-7-chloroimidazo[1,2-a]pyridine hydrate]",> 2000,> 2000,–,–,–,–,–,–,–,–,–,–,–,–,–,–,–,–,–,–,–
"c1ccc(-c2ccc(-c3cn4ccccc4n3)cc2)cc1 [Compound 2f, 2-([1,1′-biphenyl]-4-yl)imidazo[1,2-a]pyridine]",208 ± 17,> 2000,208,208,–,–,–,–,228,196,200,–,–,–,–,–,–,–,196,200,"AChE % inhibition ([1]; conc 30 (µg/mL), single read): -1.6523% and -0.07%; AChE % inhibition ([1]; conc 40 (µg/mL), single read): 19.47% and 31.90% and 23.42%; AChE % inhibition ([1]; conc 60 (µg/mL), single read): 46.62% and 65.66% and 72.27%; AChE % inhibition ([1]; conc 70 (µg/mL), single read): 57.54% and 72.63% and 80.68%; AChE % inhibition ([1]; conc 80 (µg/mL), single read): 86.28% and 82.61% and 80.17%; IC50 [1, 22]: 228 µM"
"Cc1cccn2cc(-c3ccc(-c4ccccc4)cc3)nc12 [Compound 2g, 2-([1,1′-biphenyl]-4-yl)-8-methylimidazo[1,2-a]pyridine]",288 ± 48,315 ± 6,288,288,–,66.67% and 62.62% and 65.90%,81.50% and 87.67% and 85.81%,83.04% and 90.94% and 100.39%,343,264,258,315,315,315,–,61.12% and 73.89% and 66.92%,311,310,263,258,"AChE % inhibition ([1]; conc 250 (µg/mL), single read): 106.74% and 92.10% and 107.32%; AChE % inhibition ([1]; conc 300 (µg/mL), single read): 140.85% and 130.64% and 128.52%; IC50 [1, 22]: 343 µM; BChE % inhibition ([2]; conc 60 (µg/mL)): 7.74% and 0.19% and 6.00%; BChE % inhibition ([2]; conc 80 (µg/mL)): 35.59% and 45.45% and 37.33%; BChE % inhibition ([2]; conc 90 (µg/mL)): 48.36% and 35.01% and 51.84%; BChE % inhibition ([2]; conc 110 (µg/mL)): 84.33% and 65.76% and 66.92%; BChE % inhibition ([2]; conc 120 (µg/mL)): 106.96% and 76.79% and 121.47%; IC50 [2, 16]: 322 µM; IC50 [2, 17]: 322 µM; IC50 [2, 18]: 312 µM; IC50 [2, 19]: 311 µM"
"Cc1ccc2nc(-c3ccc(-c4ccccc4)cc3)cn2c1 [Compound 2h, 2-([1,1′-biphenyl]-4-yl)-6-methylimidazo[1,2-a]pyridine]",79 ± 10,496 ± 27,79.2,79.1,92.28% and 79.96% and 93.21%,99.77% and 84.22% and 106.56%,–,–,83.8,86.3,67.4,484,496,496,28.12% and 20.13% and 20.63%,19.13% and 27.12% and 17.64%,485,484,86.2,67.3,"AChE % inhibition ([1]; conc 25 (µg/mL), single read): 58.20% and 76.39% and 68.79%; AChE % inhibition ([1]; conc 75 (µg/mL), single read): 92.40% and 88.83% and 96.55%; IC50 [1, 22]: 83.7 µM; BChE % inhibition ([2]; conc 150 (µg/mL)): 48.09% and 45.09% and 49.08%; BChE % inhibition ([2]; conc 200 (µg/mL)): 83.03% and 81.03% and 75.54%; BChE % inhibition ([2]; conc 250 (µg/mL)): 102.50% and 115.97% and 86.02%; IC50 [2, 16]: 477 µM; IC50 [2, 17]: 476 µM; IC50 [2, 18]: 528 µM; IC50 [2, 19]: 527 µM"
"Clc1cccn2cc(-c3ccc(-c4ccccc4)cc3)nc12 [Compound 2i, 2-([1,1′-biphenyl]-4-yl)-8-chloroimidazo[1,2-a]pyridine]",253 ± 25,> 2000,253,253,10.30% and 14.24% and 6.35%,49.40% and 76.34% and 66.48%,92.44% and 89.16% and 84.56%,97.37% and 103.61% and 101.97%,269,225,266,–,–,–,–,–,–,–,224,265,"AChE % inhibition ([1]; conc 75 (µg/mL), single read): 37.90% and 58.60% and 35.60%; AChE % inhibition ([1]; conc 125 (µg/mL), single read): 81.60% and 94.74% and 74.70%; IC50 [1, 22]: 268 µM"
"Clc1ccc(-c2cn3ccccc3n2)cc1Cl [Compound 2j, 2-(3,4-dichlorophenyl)imidazo[1,2-a]pyridine]",> 2000,–,–,–,–,–,–,–,–,–,–,75.6,–,–,63.01% and 66.76% and 69.65%,91.04% and 87.86% and 90.17%,–,–,–,–,BChE % inhibition ([2]; conc 12.5 (µg/mL)): 27.75% and 48.55% and 34.78%; BChE % inhibition ([2]; conc 25 (µg/mL)): 50.87% and 55.49% and 62.14%
"Cc1cccn2cc(-c3ccc(Cl)c(Cl)c3)nc12 [Compound 2k, 2-(3,4-dichlorophenyl)-8-methylimidazo[1,2-a]pyridine]",> 2000,191 ± 29,–,–,–,–,–,–,–,–,–,197,191,191,44.12% and 38.16% and 45.75%,66.91% and 74.50%,225,224,–,–,"BChE % inhibition ([2]; conc 150 (µg/mL)): 80.47% and 68.54% and 70.16%; BChE % inhibition ([2]; conc 200 (µg/mL)): 146.65% and 115.19%; IC50 [2, 16]: 177 µM; IC50 [2, 17]: 176 µM; IC50 [2, 18]: 172 µM; IC50 [2, 19]: 171 µM"
"COc1ccc(-c2cn3ccccc3n2)cc1 [Compound 2l, 2-(4-methoxyphenyl)imidazo[1,2-a]pyridine]",> 2000,> 2000,–,–,–,–,–,–,–,–,–,–,–,–,–,–,–,–,–,–,–
"COc1ccc(-c2cn3cccc(C)c3n2)cc1 [Compound 2m, 2-(4-methoxyphenyl)-8-methylimidazo[1,2-a]pyridine]",> 2000,> 2000,–,–,–,–,–,–,–,–,–,–,–,–,–,–,–,–,–,–,–
